Where two headings read alike, the source gives them in different places.
Columns and labels:
[1] = target: T1, SF3b complexes (Homo sapiens, UniProt O75533+Q7RTV0); test: Scintillation proximity assay (SPA) with [3H]-labelled pladienolide probe; assay type: binding; conditions: SF3B1 (WT); geometric mean; read-out: SPA-ATS GMean IC50 (nM) SF3B1 (WT)
T1 construct: endogenous in cells; host or cells: Nuclear extracts; A HeLa S3 extract preparation is described for the in vitro splicing assay
Method in brief: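 SF3b complexes captured from nuclear extracts on anti-SF3B1 antibody SPA beads; test compounds pre-incubated 30 min before 2.5 nM [3H]-pladienolide probe added, then 30 min incubation. Bound probe read by scintillation; values from non-linear regression of concentration–response curves.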

[2] = tested on: Ad2 variant pre-mRNAs spliced in HeLa S3 nuclear extracts; test: In vitro splicing assay (IVS), RT-qPCR of spliced product; assay type: biochemical; conditions: for IC50: geometric mean
Method in brief: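 Read-out is one-step TaqMan RT-qPCR of spliced Ad2 mRNA with Ftz as reference, normalized to DMSO and fit by non-linear regression. Reactions held HeLa S3 nuclear extract, 2 ng Ad2-derived pre-mRNA and test compound, with 15 min preincubation. Splicing was started with ATP-containing activation buffer and run 90 min at 30 °C.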

[3] = tested on: NCI-H1568 cells (high MCL1); test: Cell proliferation and viability, CellTiter-Glo, 72 hours; assay type: cell-based; conditions: for GI50: geometric mean
Method in brief: (§1)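 ATP luminescence (CellTiter-Glo) was measured 72 h after treatment with compound at 10 μM–100 pM (11 points, half-log) in 0.1% DMSO. The Panc line was grown in RPMI-1640 plus insulin and 15% FBS, the other in 10% FBS. Data were normalised to time zero and vehicle controls, where −100% is cidal and 0% static.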

[4] = tested on: Panc 05.04 cells (SF3b K700E mutant); test: as above; assay type: cell-based; conditions: for GI50: geometric mean
Method in brief: as §1

[5] = Ad2.1 pre-mRNA substrate, read-out: qPCR-IVS-ATS GMean IC50 (nM) Ad2.1
[6] = Ad2.2 pre-mRNA substrate, read-out: qPCR-IVS-ATS GMean IC50 (nM) Ad2.2
[7] = NCI-H1568, read-out: CTGlo-ATS GMean GI50 (nM) 72 h NCIH1568.1, NCIH1568.1 cells, 72 h
[8] = NCIH1568.1 cells, 72 h, −100% cidal, 0% static, 100% maximal growth
[9] = PANC0504.1 cells, 72 h, −100% cidal, 0% static, 100% maximal growth
[10] = Panc 05.04, read-out: CTGlo-ATS GMean GI50 (nM) 72 h PANC0504.1, PANC0504.1 cells, 72 h

| Compound | IC50 [1] [nM] | IC50 [2, 5] [nM] | IC50 [2, 6] [nM] | Ratio Ad2.1/2.2 ([2]; ratio of IVS IC50 Ad2.1 to Ad2.2) | CTGlo-ATS Mean MinResponse % 72 h NCIH1568.1 ([3]; 72 h, NCIH1568.1, -100% = cidal, 0% = static, 100% = uninhibited growth) [%] | GI50 ([3]; NCI-H1568, 72 h, read-out: CTGlo-ATS GMean GI50 (nM) 72 h NCIH1568.1, 72 h, NCIH1568.1) [nM] | CTGlo-ATS Mean MinResponse % 72 h PANC0504.1 ([4]; 72 h, PANC0504.1, -100% = cidal, 0% = static, 100% = uninhibited growth) [%] | GI50 ([4]; Panc 05.04, 72 h, read-out: CTGlo-ATS GMean GI50 (nM) 72 h PANC0504.1, 72 h, PANC0504.1) [nM] | GI50 [3, 7] [nM] | CTGlo-ATS Mean MinResponse % 72 h NCIH1568.1 [3, 8] [%] | CTGlo-ATS Mean MinResponse % 72 h PANC0504.1 [4, 9] [%] | GI50 [4, 10] [nM] | GI50 ([3]; NCI-H1568, 72 h, read-out: CTGlo-ATS GMean GI50 (nM) 72 h NCIH1568.1, NCIH1568.1 cells, 72 h) [nM] | GI50 ([4]; Panc 05.04, 72 h, read-out: CTGlo-ATS GMean GI50 (nM) 72 h PANC0504.1, PANC0504.1 cells, 72 h) [nM] |
| --- | --- | --- | --- | --- | --- | --- | --- | --- | --- | --- | --- | --- | --- | --- |
| C/C(=C\c1cc(F)cc(N2CCOCC2)c1)[C@H]1OC(=O)C[C@H](O)CC[C@H](C)[C@@H](OC(=O)N(C)CCC#N)/C=C/[C@@H]1C [Compound 245, [(2S,3S,4E,6R,7S,10R)-2-[(E)-1-(3-fluoro-5-morpholin-4-ylphenyl)prop-1-en-2-yl]-10-hydroxy-3,7-dimethyl-12-oxo-1-oxacyclododec-4-en-6-yl] N-(2-cyanoethyl)-N-methylcarbamate] | 17.4 | 8880 | 64.8 | 136.897 | −46.475 | 62.3 | −95.548 | 113 |  |  |  |  |  |  |
| C/C(=C\c1cc(F)c2cn(C3CCOCC3)nc2c1)[C@H]1OC(=O)C[C@H](O)CC[C@H](C)[C@@H](OC(=O)N2CCN(C)CC2)/C=C/[C@@H]1C [Compound 117] | 9.76 | > 25000 | 69.6 |  |  |  |  |  | 79.8 | −55.709 | −95.049 | 50.2 |  |  |
| C/C(=C\c1cc(F)cc(N2CCN(CCO)CC2)c1)[C@H]1OC(=O)C[C@H](O)CC[C@H](C)[C@@H](OC(=O)N2CCOCC2)/C=C/[C@@H]1C [Compound 53] | 14.1 | 1910 | 30.5 |  |  |  |  |  | 81.8 | −59.250 | −92.947 | 81.1 |  |  |
| C/C(=C\c1cc(F)cc(N2CCOCC2)c1)[C@H]1OC(=O)C[C@H](O)CC[C@H](C)[C@@H](OC(=O)N2CCN(CC(F)(F)F)CC2)/C=C/[C@@H]1C [Compound 92, [(2S,3S,4E,6R,7S,10R)-2-[(E)-1-(3-fluoro-5-morpholin-4-ylphenyl)prop-1-en-2-yl]-10-hydroxy-3,7-dimethyl-12-oxo-1-oxacyclododec-4-en-6-yl] 4-(2,2,2-trifluoroethyl)piperazine-1-carboxylate] | 80 | > 25000 | 664 |  |  |  |  |  | 401 | −3.918 | −37.359 | 433 |  |  |
| C/C(=C\c1cc(F)cc(N2C[C@@H](C)O[C@@H](C)C2)c1)[C@H]1OC(=O)C[C@H](O)CC[C@H](C)[C@@H](OC(=O)N2CCC(N3CCCCC3)CC2)/C=C/[C@@H]1C [Compound 16] | 57 | 100 | 39.2 |  |  |  |  |  | 59.1 | −88.977 | −85.810 | 41.5 |  |  |
| C/C(=C\c1cc(F)cc(N2CCN(CCO)C2=O)c1)[C@H]1OC(=O)C[C@H](O)CC[C@H](C)[C@@H](OC(=O)N2CCN(C)CC2)/C=C/[C@@H]1C [Compound 65] | 2.83 | 26.2 | 17.3 |  |  |  |  |  |  | −68.297 | −88.951 |  | 5.88 | 5.74 |
| C/C(=C\c1cc(F)cc(N2CCOCC2)c1)[C@H]1OC(=O)C[C@H](O)CC[C@H](C)[C@@H](OC(=O)N2CCN(C(C)C)CC2)/C=C/[C@@H]1C [Compound 24] | 5.19 | 192 | 30.7 |  |  |  |  |  | 10.9 | −67.459 | −89.895 | 8.29 |  |  |
| C/C(=C\c1cc(F)cc(N2CCN(CCO)CC2)c1)[C@H]1OC(=O)C[C@H](O)CC[C@H](C)[C@@H](OC(=O)N2CCC(N3CCCCC3)CC2)/C=C/[C@@H]1C [Compound 13] | 7.43 | 19.3 | 15.9 |  |  |  |  |  | 20.8 | −95.312 | −94.040 | 32.7 |  |  |

Reference: US11679107B2 (Eisai R&D Management Co., Ltd., priority 2018, dated 2023)
